Consider two compounds from patent publication US10179173B2, “Semi-solid delivery systems” (Regents of the University of Minnesota, priority 2012, dated 2019).

Data set [1] can be described thus: In vitro drug release from drug loaded semi-solid polymer in buffered saline. The format is physicochemical. On the procedure:
A certain amount of drugs (Ibuprofen or BSA) were grinded into fine particles and then mixed with certain amount of polymer in a glass vial. […] At certain time points, the buffer was removed for analysis and replaced with fresh buffer. The amount of Ibu released in the medium was measured by UV spectroscopy (Beckman Coulter, DU 640B spectrophotometer) for absorbance at 263 nm.

The nature of data set [2]: Solubility of drugs in water and in the semi-solid polymer. Type of data set: physicochemical. The note with it: PCL-OE-1.
For data set [3] the following is noted: cited from earlier work.
For data set [4] the following is noted: mouse, in vivo, sc.
Experimental: In vivo biocompatibility of the polymer was evaluated by subcutaneous injection into mice through 18-gauge needles; 50 mg of polymer was injected for each mouse. At certain time point, mouse was sacrificed and the tissue of the injection site harvested, sectioned, and stained with H&E.

For the compound `CC(C)Cc1ccc(C(C)C(=O)O)cc1` (centres unmarked) [Ibu, Ibuprofen], in data set [1] (5 wt % in PCL-OE-1, pH 7.4 and pH 5.0), the “duration of sustained release of Ibu from the semi-solid polymer” value was “at least three”. In addition, the “effect of pH on sustained release of Ibu” value in data set [1] (pH 7.4 versus pH 5.0) was “not affected by pH”. Moreover, the “solubility in the semi-solid polymer” value in data set [2] is “excellent solubility”. The solubility in water entry in data set [3] is reported as “poor solubility in water”.

On to “poly(ortho ester caprolactone) [PCL-OE-1]”, for which the “tissue damage or inflammatory response at injection site (H&E)” value in data set [4] is given as “No visible tissue damage or inflammatory response”.
